Values of other authors, collected in patent publication US20130302415A1, “Pharmaceutical Composition” (CIPLA Limited, priority 2010, published 2013).

Settings: class II = low solubility, high permeability

Biopharmaceutical Classification System class: class II
SMILES: O=C1Nc2ccc(Cl)cc2[C@@](C#CC2CC2)(C(F)(F)F)O1 [Efavirenz, (S)-6-chloro-4-cyclopropylethynyl-4-trifluoromethyl-1,4-dihydro-2H-3,1-benzoxazin-2-one]
